In patent US9150579B2, “Selective PI3K delta inhibitors” (Rhizen Pharmaceuticals SA, priority 2012, dated 2015):
pIC50: −log10 of the molar value. Read-outs that look alike come from different tables or passages of the source.

Tests used:
PI3K α = PI3K α (Homo sapiens (Human), UniProt P42336); assay: Assay 1: Fluorescent (HTRF) determination of PI3K enzyme activity, alpha; assay type: biochemical
Protocol: (§1) The homogenous time resolved fluorescence (HTRF) assay allows detection of 3,4,5-triphosphate (PIP3) formed as a result of phosphorylation of phosphotidylinositol 4,5-biphosphate (PIP2) by PI3K isoforms such as α, β, γ or δ.
(§2) PI3K isoform activity for α, β, γ or δ was determined using a PI3K human HTRF™ Assay Kit (Millipore, Billerica, Mass.) with modifications. All incubations were carried out at room temperature. […] After the initial incubation, 5 μl/well of 400 μM ATP was added and incubated for an additional 30 minutes. Reaction was terminated by adding 5 μl/well stop solution (Millipore, Billerica, Mass.). Five microliters of detection mix (Millipore, Billerica, Mass.) were then added to each well and was incubated for 6-18 h in the dark.

[1] = Metabolic stability in human liver microsomes; assay type: in vitro ADME; details: 1 μM test item, 60 minutes, NADPH
Protocol: (§3) Metabolic stability studies were conducted using mouse, rat, and human liver microsomes. The protocol for the studies with mouse, rat, and human liver microsomes (all from BD Gentest, USA) is provided below. In brief, 0.4 mg protein was preincubated with 2 mM NADPH (cofactor) in phosphate buffer (pH˜7.4) for 15 min at 37° C. and then added with 1 μM test item and incubated further for 60 minutes in triplicate. The reaction mixture was terminated with methanol containing an internal standard and centrifuged further to analyze the test item remaining in the supernatant by LC-MS/MS. The percent parent compound remaining was calculated in comparison with similar samples terminated at 0 minutes.

PI3K β = PI3K β (Homo sapiens (Human), UniProt P42338); assay: Assay 1: Fluorescent (HTRF) determination of PI3K enzyme activity, beta; assay type: biochemical
Protocol: as §1, §2

PI3K delta = PI3K delta (Homo sapiens (Human), UniProt O00329); assay: Assay 1: Fluorescent (HTRF) determination of PI3K enzyme activity, delta; assay type: biochemical
Protocol: as §1
as §2, with “dark. HRTF ratio was measured on a microplate reader (BMG Labtech., Germany) at an excitation wavelength of 337 nm and emission wavelengths of 665 and 620 nm with an integration time of 400 μsec.” for “dark.”

[2] = Metabolic stability in rat liver microsomes; assay type: in vitro ADME; details: 1 μM test item, 60 minutes, NADPH
Protocol: as §3

[3] = Metabolic stability in mouse liver microsomes; assay type: in vitro ADME; details: 1 μM test item, 60 minutes, NADPH
Protocol: as §3

PI3K γ = PI3K γ (Homo sapiens (Human), UniProt P48736); assay: Assay 1: Fluorescent (HTRF) determination of PI3K enzyme activity, gamma; assay type: biochemical
Protocol: as §1, §2

[4] = Oral pharmacokinetics in dogs; assay type: in vivo
[5] = Oral pharmacokinetics in rats; assay type: in vivo
Protocol: The protocol for the pharmacokinetics studies in rat is provided below.
All animals were fasted overnight (12 hours) before dosing and continued till 4.0 hours after administration of test item. Test item formulations were prepared in 1% Tween 80 and 99% media (0.5% Methyl cellulose, 4000 cPs, pH 2.2). The blood samples (150 μl from each animal) were collected from the orbital sinus, and placed into a micro centrifuge tube containing disodium EDTA as an anticoagulant. Blood samples were centrifuged immediately with a speed of 1000 g for 10 min at 4° C. and separated plasma samples were frozen at below −80° C. and stored until analysis. The concentrations of test item in all formulation were analyzed by HPLC. The plasma concentrations of test item in all samples were analyzed by LC-MS/MS. Pharmacokinetic parameters viz. Cmax, AUC0-t, Tmax, and t1/2 were estimated by using WinNonlin software.

Sequence of PI3K α (P42336 whole entry, canonical isoform): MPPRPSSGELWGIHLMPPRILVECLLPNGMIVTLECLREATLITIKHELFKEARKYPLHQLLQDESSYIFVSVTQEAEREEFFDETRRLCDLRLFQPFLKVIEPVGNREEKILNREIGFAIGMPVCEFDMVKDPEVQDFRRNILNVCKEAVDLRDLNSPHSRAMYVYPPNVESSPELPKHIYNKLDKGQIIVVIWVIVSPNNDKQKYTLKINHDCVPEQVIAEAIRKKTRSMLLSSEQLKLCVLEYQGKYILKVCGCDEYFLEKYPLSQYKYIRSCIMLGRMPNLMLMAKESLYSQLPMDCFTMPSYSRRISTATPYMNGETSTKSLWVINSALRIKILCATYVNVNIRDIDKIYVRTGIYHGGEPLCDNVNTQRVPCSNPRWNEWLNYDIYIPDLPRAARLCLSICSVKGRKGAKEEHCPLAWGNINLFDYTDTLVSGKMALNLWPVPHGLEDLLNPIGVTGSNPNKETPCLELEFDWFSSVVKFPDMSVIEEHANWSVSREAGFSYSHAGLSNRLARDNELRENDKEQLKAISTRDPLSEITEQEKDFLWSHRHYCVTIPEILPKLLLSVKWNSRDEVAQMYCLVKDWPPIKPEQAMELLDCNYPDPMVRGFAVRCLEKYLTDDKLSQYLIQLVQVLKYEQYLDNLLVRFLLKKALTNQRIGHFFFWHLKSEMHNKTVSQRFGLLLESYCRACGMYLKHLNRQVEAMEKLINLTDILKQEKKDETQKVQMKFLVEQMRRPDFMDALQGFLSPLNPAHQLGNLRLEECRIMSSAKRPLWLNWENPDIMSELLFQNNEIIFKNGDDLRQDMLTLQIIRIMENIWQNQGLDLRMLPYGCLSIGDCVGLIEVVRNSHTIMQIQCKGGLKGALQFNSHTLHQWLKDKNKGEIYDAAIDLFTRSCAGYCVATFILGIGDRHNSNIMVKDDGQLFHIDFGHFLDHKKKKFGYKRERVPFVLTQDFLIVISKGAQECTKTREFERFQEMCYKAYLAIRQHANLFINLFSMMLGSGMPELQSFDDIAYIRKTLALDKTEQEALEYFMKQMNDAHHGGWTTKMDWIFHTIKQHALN
Sequence of PI3K α (P27986 whole entry partner, canonical isoform): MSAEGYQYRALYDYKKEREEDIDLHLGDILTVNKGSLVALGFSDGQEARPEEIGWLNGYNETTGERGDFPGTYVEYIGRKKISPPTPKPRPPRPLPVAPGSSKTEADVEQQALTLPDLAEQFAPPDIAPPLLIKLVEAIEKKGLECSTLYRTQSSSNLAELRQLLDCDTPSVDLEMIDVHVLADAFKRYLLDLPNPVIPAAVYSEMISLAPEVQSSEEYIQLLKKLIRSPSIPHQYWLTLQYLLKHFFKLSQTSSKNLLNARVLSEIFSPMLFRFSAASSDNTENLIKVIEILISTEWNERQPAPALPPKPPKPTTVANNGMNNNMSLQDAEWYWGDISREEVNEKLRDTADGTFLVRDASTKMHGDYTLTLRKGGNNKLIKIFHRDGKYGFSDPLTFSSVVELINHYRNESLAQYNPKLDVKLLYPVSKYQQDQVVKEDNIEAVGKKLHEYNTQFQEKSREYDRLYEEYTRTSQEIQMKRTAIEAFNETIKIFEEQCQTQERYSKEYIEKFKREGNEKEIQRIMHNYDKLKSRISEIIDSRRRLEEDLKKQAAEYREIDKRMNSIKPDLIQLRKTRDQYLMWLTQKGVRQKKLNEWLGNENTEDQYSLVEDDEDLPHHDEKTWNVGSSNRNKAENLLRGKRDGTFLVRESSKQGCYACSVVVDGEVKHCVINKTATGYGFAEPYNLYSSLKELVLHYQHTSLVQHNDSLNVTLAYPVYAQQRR
Sequence of PI3K β (P42338 whole entry): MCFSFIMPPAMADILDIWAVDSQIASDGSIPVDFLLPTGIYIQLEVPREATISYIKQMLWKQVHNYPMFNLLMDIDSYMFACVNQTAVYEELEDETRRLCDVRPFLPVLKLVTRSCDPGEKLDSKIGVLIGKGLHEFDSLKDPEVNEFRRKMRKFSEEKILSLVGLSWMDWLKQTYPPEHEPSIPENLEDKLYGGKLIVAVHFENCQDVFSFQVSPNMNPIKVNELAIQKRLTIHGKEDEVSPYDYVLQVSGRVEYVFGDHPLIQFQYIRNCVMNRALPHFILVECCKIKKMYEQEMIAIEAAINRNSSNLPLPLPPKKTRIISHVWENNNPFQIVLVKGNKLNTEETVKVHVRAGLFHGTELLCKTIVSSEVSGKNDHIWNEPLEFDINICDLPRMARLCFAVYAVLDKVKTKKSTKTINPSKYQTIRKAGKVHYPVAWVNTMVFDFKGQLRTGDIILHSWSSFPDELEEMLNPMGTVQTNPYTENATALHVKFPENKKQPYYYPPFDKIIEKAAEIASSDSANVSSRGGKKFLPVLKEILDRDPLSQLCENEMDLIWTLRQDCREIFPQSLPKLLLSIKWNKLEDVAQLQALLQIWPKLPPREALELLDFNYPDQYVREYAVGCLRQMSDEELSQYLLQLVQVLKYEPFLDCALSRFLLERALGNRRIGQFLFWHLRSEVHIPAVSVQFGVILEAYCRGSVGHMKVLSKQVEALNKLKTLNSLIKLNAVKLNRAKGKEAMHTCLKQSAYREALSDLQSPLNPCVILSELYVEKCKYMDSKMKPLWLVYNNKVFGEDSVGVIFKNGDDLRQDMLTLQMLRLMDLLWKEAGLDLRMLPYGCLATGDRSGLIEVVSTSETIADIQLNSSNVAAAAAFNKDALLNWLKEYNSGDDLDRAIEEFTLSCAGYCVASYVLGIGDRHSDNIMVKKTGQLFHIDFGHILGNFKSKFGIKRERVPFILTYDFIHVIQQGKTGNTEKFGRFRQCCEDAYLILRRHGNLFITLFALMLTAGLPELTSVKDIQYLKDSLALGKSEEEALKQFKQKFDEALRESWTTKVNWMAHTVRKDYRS
Sequence of PI3K β (P27986 whole entry partner): as the sequence (P27986 whole entry partner, canonical isoform) above
Sequence of PI3K delta (O00329 whole entry): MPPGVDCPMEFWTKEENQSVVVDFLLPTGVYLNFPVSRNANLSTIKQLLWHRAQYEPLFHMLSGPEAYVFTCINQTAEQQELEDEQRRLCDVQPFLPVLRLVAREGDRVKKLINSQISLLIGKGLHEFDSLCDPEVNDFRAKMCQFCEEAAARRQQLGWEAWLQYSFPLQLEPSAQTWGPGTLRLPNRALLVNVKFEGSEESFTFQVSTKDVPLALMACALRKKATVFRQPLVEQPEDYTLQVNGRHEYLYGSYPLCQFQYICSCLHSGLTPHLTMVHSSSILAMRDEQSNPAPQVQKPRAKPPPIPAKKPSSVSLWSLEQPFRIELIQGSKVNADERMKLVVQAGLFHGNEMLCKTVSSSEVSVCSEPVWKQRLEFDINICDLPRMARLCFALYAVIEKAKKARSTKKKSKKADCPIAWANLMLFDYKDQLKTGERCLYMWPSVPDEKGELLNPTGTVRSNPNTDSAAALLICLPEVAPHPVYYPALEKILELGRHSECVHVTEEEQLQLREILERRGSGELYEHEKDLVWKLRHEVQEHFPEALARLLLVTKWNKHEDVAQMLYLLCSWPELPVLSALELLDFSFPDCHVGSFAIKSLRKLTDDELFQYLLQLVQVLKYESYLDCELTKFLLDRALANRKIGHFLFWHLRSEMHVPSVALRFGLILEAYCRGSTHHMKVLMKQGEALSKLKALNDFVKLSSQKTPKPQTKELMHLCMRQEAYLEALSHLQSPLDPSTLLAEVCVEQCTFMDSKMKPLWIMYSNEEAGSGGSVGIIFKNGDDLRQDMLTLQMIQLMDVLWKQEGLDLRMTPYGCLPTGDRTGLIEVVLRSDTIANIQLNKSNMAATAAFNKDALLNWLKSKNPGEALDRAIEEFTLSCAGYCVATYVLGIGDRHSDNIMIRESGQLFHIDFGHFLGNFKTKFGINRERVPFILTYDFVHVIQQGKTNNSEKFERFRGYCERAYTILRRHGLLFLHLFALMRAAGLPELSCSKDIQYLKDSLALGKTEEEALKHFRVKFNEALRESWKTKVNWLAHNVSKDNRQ
Sequence of PI3K delta (P27986 whole entry partner): as the sequence (P27986 whole entry partner, canonical isoform) above
Sequence of PI3K γ (P48736 whole entry): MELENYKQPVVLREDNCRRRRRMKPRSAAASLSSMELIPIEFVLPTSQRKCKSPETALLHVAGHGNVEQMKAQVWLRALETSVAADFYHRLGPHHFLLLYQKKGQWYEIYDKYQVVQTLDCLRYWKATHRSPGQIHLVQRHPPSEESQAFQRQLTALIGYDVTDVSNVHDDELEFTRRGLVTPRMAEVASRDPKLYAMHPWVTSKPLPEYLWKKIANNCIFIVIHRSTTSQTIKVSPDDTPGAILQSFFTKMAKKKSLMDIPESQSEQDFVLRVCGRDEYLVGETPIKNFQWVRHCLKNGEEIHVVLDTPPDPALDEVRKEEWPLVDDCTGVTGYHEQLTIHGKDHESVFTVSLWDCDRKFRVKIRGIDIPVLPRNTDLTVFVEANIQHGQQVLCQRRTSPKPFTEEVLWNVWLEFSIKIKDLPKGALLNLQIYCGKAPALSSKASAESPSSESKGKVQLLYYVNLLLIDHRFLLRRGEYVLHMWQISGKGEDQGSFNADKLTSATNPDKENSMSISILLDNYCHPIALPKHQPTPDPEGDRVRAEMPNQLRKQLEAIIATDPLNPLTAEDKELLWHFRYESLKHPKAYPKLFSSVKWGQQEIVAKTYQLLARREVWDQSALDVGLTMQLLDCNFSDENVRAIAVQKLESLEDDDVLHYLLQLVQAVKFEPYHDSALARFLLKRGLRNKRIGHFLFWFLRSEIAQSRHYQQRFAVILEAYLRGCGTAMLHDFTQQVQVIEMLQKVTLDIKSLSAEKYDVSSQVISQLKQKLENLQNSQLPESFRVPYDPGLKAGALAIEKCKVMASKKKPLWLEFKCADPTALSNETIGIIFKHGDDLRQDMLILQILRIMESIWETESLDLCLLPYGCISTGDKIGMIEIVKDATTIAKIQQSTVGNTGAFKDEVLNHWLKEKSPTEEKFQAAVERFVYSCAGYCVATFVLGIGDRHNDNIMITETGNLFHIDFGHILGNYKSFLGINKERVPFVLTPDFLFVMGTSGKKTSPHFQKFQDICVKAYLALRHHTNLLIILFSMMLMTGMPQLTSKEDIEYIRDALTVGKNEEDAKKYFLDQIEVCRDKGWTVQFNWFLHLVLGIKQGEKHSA

| Compound | inhibition at 1 µM (PI3K α) | Metabolic stability in liver microsomes, Human (percent parent compound remaining) [1] | inhibition at 1 µM (PI3K β) | pIC50 (PI3K delta) | Metabolic stability in liver microsomes, Rat (percent parent compound remaining) [2] | Metabolic stability in liver microsomes, Mouse (percent parent compound remaining) [3] | inhibition at 1 µM (PI3K γ) | IC50 (PI3K delta; μM) | Cmax relative to free base of compound B1 [4] | area under the curve (AUC) relative to free base of compound B1 [4] | Cmax relative to free base of compound B1 [5] | area under the curve (AUC) relative to free base of compound B1 [5] |
| --- | --- | --- | --- | --- | --- | --- | --- | --- | --- | --- | --- | --- |
| CC(C)Oc1ccc(-c2nn(C(C)c3oc4ccccc4c(=O)c3-c3cccc(F)c3)c3ncnc(N)c23)cc1F (racemic) [Compound A, 2-(1-(4-amino-3-(3-fluoro-4-isopropoxyphenyl)-1H-pyrazolo[3,4-d]pyrimidin-1-yl)ethyl)-3-(3-fluorophenyl)-4H-chromen-4-one] | 2.63% | 38.4% | 9.95% | 7.43 | 43.1% | 32.6% | 55.9% |  |  |  |  |  |
| CC(C)Oc1ccc(-c2nn(C(C)c3oc4ccc(F)cc4c(=O)c3-c3cccc(F)c3)c3ncnc(N)c23)cc1F (racemic) [Compound B, 2-(1-(4-amino-3-(3-fluoro-4-isopropoxyphenyl)-1H-pyrazolo[3,4-d]pyrimidin-1-yl)ethyl)-6-fluoro-3-(3-fluorophenyl)-4H-chromen-4-one] |  | 46.9% |  |  | 51.4% | 54.9% |  |  |  |  |  |  |
| CC(C)Oc1ccc(-c2nn([C@H](C)c3oc4ccccc4c(=O)c3-c3cccc(F)c3)c3ncnc(N)c23)cc1F [Compound A2, (R)-2-(1-(4-amino-3-(3-fluoro-4-isopropoxyphenyl)-1H-pyrazolo[3,4-d]pyrimidin-1-yl)ethyl)-3-(3-fluorophenyl)-4H-chromen-4-one] | 0.95% | 11.4% | 38.7% |  | 44.2% | 34.7% | 66.3% | > 10 µM |  |  |  |  |
| CC(C)Oc1ccc(-c2nn([C@H](C)c3oc4ccc(F)cc4c(=O)c3-c3cccc(F)c3)c3ncnc(N)c23)cc1F [Compound B2, (R)-2-(1-(4-amino-3-(3-fluoro-4-isopropoxyphenyl)-1H-pyrazolo[3,4-d]pyrimidin-1-yl)ethyl)-6-fluoro-3-(3-fluorophenyl)-4H-chromen-4-one] |  | 27.5% |  |  | 48.6% | 54.1% |  |  |  |  |  |  |
| CC(C)Oc1ccc(-c2nn([C@@H](C)c3oc4ccc(F)cc4c(=O)c3-c3cccc(F)c3)c3ncnc(N)c23)cc1F.Cc1ccc(S(=O)(=O)O)cc1 [PTSA salt of compound B1, (S)-2-(1-(4-amino-3-(3-fluoro-4-isopropoxyphenyl)-1H-pyrazolo[3,4-d]pyrimidin-1-yl)ethyl)-6-fluoro-3-(3-fluorophenyl)-4H-chromen-4-one 4-methylbenzenesulfonate] |  |  |  |  |  |  |  |  | more than twice | about four times | about twice | nearly three times |
